{
  "source": "patent US20140377337A1",
  "about": "(priority 2012, published 2014)",
  "key": {"[1]": {"system": "high myopia", "conditions": "intravenously administered PGE1, conclusion of the cited publication; cited from earlier work"}, "[2]": {"system": "ocular district", "assay": "Blood flow / anti-ischemic effect in the ocular district after PGE1 cream on the inner forearm", "assay_type": "in vivo, patient"}},
  "data": [
    {"smiles": "CCCCC[C@H](O)/C=C/[C@H]1[C@H](O)CC(=O)[C@@H]1CCCCCCC(=O)O", "note": "[PGE1, prostaglandin E1]", "values": [
      {"measurement": "duration of the effect of the intravenous administration", "setting": "[1]", "result": "6-8 weeks"},
      {"measurement": "anti-ischemic effects in the ocular district versus 60 micrograms of PGE1 by intravenous infusion", "setting": "[2]; cream 20 μg per ml, patient weighing 60 kg, total dose 4 ml of cream (80 μg total of PGE1), transdermal", "result": "comparable"},
      {"measurement": "effect on blood flow at the ocular district level", "setting": "[2]; cream with 10-30 micrograms of PGE1 per ml, applied on the inner forearm", "result": "increased blood flow"}
    ]}
  ]
}
